Laboratory results reported in patent US20200289598A1, “SOYBEAN SEED EXTRACT, METHOD FOR PRODUCING THE SAME AND USES THEREOF” (CHARSIRE BIOTECHNOLOGY CORP., priority 2016, published 2020).
Where “and” joins values, the source holds several entries; their conditions need not be identical. Identical values can stand only once. Like-named read-outs stand apart in the source and are kept apart here.

What was measured:
[1] = system: wounds of STZ-induced diabetic rats; test: Wound closure test in STZ-induced diabetic rats; type: in vivo, rat; conditions: mean ± SEM
From the text: Approximately 8 weeks old, with body weight rages of 250 g to 300 g SD male rats were obtained from National Laboratory Animal Center, Taiwan. After 7 days of quarantine, the rats were moved until the body weight over 350 g. The rats were identified by ear notch of the animals. Each cage tag was labeled with the cage number, study number, sex and group name. The rats were housed 2 per cage in polycarbonate cage in the AAALAC accredited animal facility. […] Laboratory Rodent Diet 5001 (PMI® Nutrition International, Inc., MO, USA) were supplied ad libitum throughout the study period. Tap water was supplied ad libitum via bottles attached to the cages. Samples (test articles) were prepared according to Table 4. [table] CGS-21680: Specific adenosine A2A subtype receptor agonist, prepared by adding 1.67 mg of CGS-21680 in 248.4 g of cream base. Diabetic rats: The rats with body weight over 300 g were administrated with one dose of Streptozotocin (STZ, 65 mg/kg) by intravenous injection. The STZ-induced rats with high blood sugar (over 300 mg/dL) for 2 months were selected to conduct the wound closure test. Trauma surgeries for diabetic rats: The diabetic rats with weight lower than 300 g were eliminated and the rest were randomized into 6 groups. The rats were then anesthetized with pentobarbital and hairs on surgical area (dorsal area) were removed. […] Medication and wound closure measurement: The animals were weighed and the area of wounds was measured every other day for evaluation of wound closure. Medications were applied to each wound twice a day and the wounds were covered with cheesecloth. The hoods were worn on the necks of the rats to prevent the wounds from receiving animal scratches. […] When taking pictures, a standard ruler was placed beside the wounds. Before analyzing the wounds with Image pro (Media cybernetics), length was standardized with the standard ruler in the picture to avoid the errors caused by different picturing distances. Data analysis and statistics: Three wound areas on the rats' backs were analyzed by Image pro. The original wound areas were the areas of day zero. The original wound areas minus the wound areas at different time points and then divided by the original wound areas to get the wound closure percentages. The mean of three wound closure percentages of each rat represents the wound closure of each rat. The data was shown as mean±standard error (SEM). The p-values of the testing results were calculated by t-test in statistics software (SYSTAT, Systat software inc). P<0.05 means there is a significant difference, and it is marked with *. P<0.01 means there is a very significant difference, and it is marked with **. P<0.001 means there is an extremely significant difference, and it is marked with ***.

[2] = type: in vivo, nude mice
Method: Animal facility: Approximately 6 to 8 week-old BALB/cAnN.Cg-Foxn1^nu/CrlNarl female mice were obtained from National Laboratory Animal Center, Taiwan. The environment conditions were: temperature: 25±1° C.; humidity: 60±5%; independent air condition; controlled light cycle. Water and food was supplied ad libitum throughout the study period. The mice were housed according to the standard procedure of the laboratory animal committee.
Tumor-bearing mice induction: MDA-MB-231 cells (human breast cancer cells) were cultured until 5×10^6 cells, the cells required in injection of female nude mice were collected with trypsin, and resuspended in PBS solution for tumor induction. The tumor of nude mice was induced by subcutaneous injected with 100 μL of cell solution and released back into the cages to be a normal diet. When the tumor was about 300 mm^3, the mice were subjected to topical administration of different doses of the extract composition and grouping into CTX group and non-CTX group. The weight, appetite, blood sugar and tumor size growth were observed every week to assess the appearance of the normal physiological state of nude mice to understand the efficacy of the extract composition.
Grouping the tumor-bearing mice and treatment: When the tumor was about 300 mm^3, the mice were subjected to grouping as shown in Table 12. The chemotherapy drug (an injection a week) was administrated with the extract composition. The treating group was topically applied to the tumor area, skin around the tumor, and the whole back skin with the dosage of 0.1 g/day. After treatment for 5 weeks, the weight, appetite, blood sugar and tumor size growth of the nude mice were observed.
Clinical assessment of tumor-bearing mice: The physiological state and tumor size of the tumor-bearing mice were assessed including weight, appetite, blood sugar and tumor size. The tumor size was calculated according to: tumor volume (mm^3)=ab^2/2, to assess the tumor growth rate.

[3] = system: MDA-MB-231 (human breast cancer cells) tumor; test: Tumor growth in MDA-MB-231 tumor-bearing nude mice; type: in vivo; conditions: CTX one injection a week, test article topical 0.1 g/day
From the text: Cell line and reagent: MDA-MB-231 (purchased from Food Industry Research and Development Institute, Taiwan); […] Animal facility: Approximately 6 to 8 week-old BALB/cAnN.Cg-Foxn1^nu/CrlNarl female mice were obtained from National Laboratory Animal Center, Taiwan. […] Water and food was supplied ad libitum throughout the study period. The mice were housed according to the standard procedure of the laboratory animal committee. Tumor-bearing mice induction: […] The weight, appetite, blood sugar and tumor size growth were observed every week to assess the appearance of the normal physiological state of nude mice to understand the efficacy of the extract composition. Grouping the tumor-bearing mice and treatment: […] The chemotherapy drug (an injection a week) was administrated with the extract composition. […] [table] Clinical assessment of tumor-bearing mice: The physiological state and tumor size of the tumor-bearing mice were assessed including weight, appetite, blood sugar and tumor size.

Question: For `CCNC(=O)[C@H]1O[C@@H](n2cnc3c(N)nc(NCCc4ccc(CCC(=O)O)cc4)nc32)[C@H](O)[C@@H]1O` [CGS-21680], which wound closure percentage ([1]; Experimental 1, day 4, topical twice a day, CGS-21680 10 μg/wound) is on record?
Answer: The wound closure percentage was 21.87±5.61% and 21.87 ± 5.61 *** %.

Question: And the wound closure percentage ([1]; Experimental 1, day 6, topical twice a day, CGS-21680 10 μg/wound)?
Answer: The wound closure percentage was 25.45 ± 4.46 *** %.

Question: What about the wound closure percentage ([1]; Experimental 1, day 8, topical twice a day, CGS-21680 10 μg/wound) of the same molecule?
Answer: The wound closure percentage was 45.88 ± 4.28 *** %.

Question: And the wound closure percentage ([1]; Experimental 1, day 10, topical twice a day, CGS-21680 10 μg/wound)?
Answer: Its wound closure percentage is 93.80 ± 2.79 *** %.

Question: What about the wound closure percentage ([1]; Experimental 1, day 12, topical twice a day, CGS-21680 10 μg/wound) of the same molecule?
Answer: Its wound closure percentage is 91.15 ± 2.72 ** %.

Question: And the wound closure percentage ([1]; Experimental 1, day 14, topical twice a day, CGS-21680 10 μg/wound)?
Answer: The wound closure percentage was 98.74 ± 0.60 ** %.

Question: What about the wound closure percentage ([1]; Experimental 2, day 4, topical twice a day, CGS-21680 6.7 μg/wound) of the same molecule?
Answer: The wound closure percentage was 40.02 ± 5.03 ** %.

Question: What about the wound closure percentage ([1]; Experimental 2, day 6, topical twice a day, CGS-21680 6.7 μg/wound) of the same molecule?
Answer: The wound closure percentage was 63.09 ± 2.58 *** %.

Question: What about the wound closure percentage ([1]; Experimental 2, day 8, topical twice a day, CGS-21680 6.7 μg/wound) of the same molecule?
Answer: The wound closure percentage was 77.21 ± 2.44 *** %.

Question: What about the wound closure percentage ([1]; Experimental 2, day 10, topical twice a day, CGS-21680 6.7 μg/wound) of the same molecule?
Answer: Its wound closure percentage is 80.93 ± 2.08 *** %.

Question: What about the wound closure percentage ([1]; Experimental 2, day 12, topical twice a day, CGS-21680 6.7 μg/wound) of the same molecule?
Answer: Its wound closure percentage is 96.91 ± 1.08 *** %.

Question: What about the wound closure percentage ([1]; Experimental 2, day 14, topical twice a day, CGS-21680 6.7 μg/wound) of the same molecule?
Answer: Its wound closure percentage is 99.17 ± 0.54 *** %.

Question: What does the source list for `O=P1(N(CCCl)CCCl)NCCCO1` (centres unmarked) [CTX, cyclophosphamide]?
Answer: average body weight ([2]; 4/28): 19.64 g; average blood sugar ([2]; 5/2): 113 dL; average body weight ([2]; 5/2): 20.04 g; average body weight ([2]; 5/5): 18.46 g; average food intake ([2]; 5/5~5/9): 4.89 g; average blood sugar ([2]; 5/9): 93 dL; average body weight ([2]; 5/9): 19.00 g; average food intake ([2]; 5/9~5/12): 5.61 g; average body weight ([2]; 5/12): 19.51 g; average food intake ([2]; 5/12~5/16): 5.38 g; average blood sugar ([2]; 5/16): 109 dL; average body weight ([2]; 5/16): 20.99 g; average food intake ([2]; 5/16~5/19): 5.21 g; average body weight ([2]; 5/19): 20.42 g; average food intake ([2]; 5/19~5/23): 4.70 g; average blood sugar ([2]; 5/23): 122 dL; average body weight ([2]; 5/23): 21.16 g; average food intake ([2]; 5/23~5/26): 4.76 g; average body weight ([2]; 5/26): 20.21 g; average food intake ([2]; 5/26~5/30): 5.22 g; average blood sugar ([2]; 5/30): 108 dL; average body weight ([2]; 5/30): 22.18 g; tumor size elimination ([3]; 4/28): 0.00 mm^3; tumor size elimination ([3]; 5/2): 99.61 mm^3; tumor size elimination ([3]; 5/5): 78.95 mm^3; tumor size elimination ([3]; 5/9): −19.52 mm^3; tumor size elimination ([3]; 5/12): −45.11 mm^3; tumor size elimination ([3]; 5/16): −157.57 mm^3; tumor size elimination ([3]; 5/19): −176.41 mm^3; tumor size elimination ([3]; 5/23): −264.85 mm^3; tumor size elimination ([3]; 5/26): −293.68 mm^3; tumor size elimination ([3]; 5/30): −391.42 mm^3
